Values quoted from earlier work as cited in patent US20190259474A1, “GAN-CNN FOR MHC PEPTIDE BINDING PREDICTION” (REGENERON PHARMACEUTICALS, INC., priority 2018, published 2019).
Blank lines part the entries; values can stand above or below the sequence they belong to.

Columns and labels:
[1] = tested on: MHC-I protein complex encoded by HLA allele C*16:01; settings: HLA C*16:01; category transformed from IC50; also: key: binding (1); not binding (−1)
[2] = tested on: MHC-I protein complex encoded by HLA allele B*14:02; settings: HLA B*14:02; category transformed from IC50; also: key: binding (1); not binding (−1)
[3] = target: MHC-I protein complex encoded by HLA allele A*03:01 (Homo sapiens, UniProt P04439); settings: HLA A*03:01; category transformed from IC50; also: key: binding (1); not binding (−1)
[4] = tested on: MHC-I protein complex encoded by HLA allele A829:02; settings: HLA A829:02; category transformed from IC50; also: key: binding (1); not binding (−1)
[5] = target: MHC-I protein complex encoded by HLA allele A*02:01 (Homo sapiens, UniProt P04439, D140Y/D185E/D98H/E176V/E277Q/G131W/G231S/I119V/I121R/I166T/I218V/L300P/L318F/N151K/N90K/P208A/P217A/Q86G/Q94H/R138H/R169H/T345S); settings: HLA A*02:01; category transformed from IC50; also: key: binding (1); not binding (−1)
[6] = tested on: MHC-I protein complex encoded by HLA allele A*68:02; settings: HLA A*68:02; category transformed from IC50
[7] = target: MHC-I protein complex encoded by HLA allele A*02:06 (Homo sapiens, UniProt P04439, D140Y/D185E/D98H/E176V/E277Q/F33Y/G131W/G231S/I119V/I121R/I166T/I218V/L300P/L318F/N151K/N90K/P208A/P217A/Q86G/Q94H/R138H/R169H/T345S); settings: HLA A*02:06; category transformed from IC50
[8] = tested on: MHC-I protein complex encoded by HLA allele A*02:02; settings: HLA A*02:02; category transformed from IC50
[9] = target: MHC-I protein complex encoded by HLA allele A*02:03 (Homo sapiens, UniProt P04439, A173T/D140Y/D185E/D98H/E277Q/G131W/G231S/I119V/I121R/I166T/I218V/L180W/L300P/L318F/N151K/N90K/P208A/P217A/Q86G/Q94H/R138H/R169H/T345S); settings: HLA A*02:03; category transformed from IC50; also: key: binding (1); not binding (−1)
[10] = tested on: MHC-I protein complex encoded by HLA allele B*58:01; settings: HLA B*58:01; category transformed from IC50; also: key: binding (1); not binding (−1)
[11] = tested on: MHC-I protein complex encoded by HLA allele B*48:01; settings: HLA B*48:01; category transformed from IC50; also: key: binding (1); not binding (−1)
[12] = tested on: MHC-I protein complex encoded by HLA allele C*03:04; settings: HLA C*03:04; category transformed from IC50; also: key: binding (1); not binding (−1)
[13] = tested on: MHC-I protein complex encoded by HLA allele B*44:03; settings: HLA B*44:03; category transformed from IC50; also: key: binding (1); not binding (−1)

Binding Category [1]: 1
Sequence: AAADPKVAF (MHC-I binding peptide)

Binding Category [5]: −1
Sequence: AAAAEEEEE (MHC-I binding peptide)

Binding Category [12]: 1
Sequence: AAADAAAAL (MHC-I binding peptide)

Binding Category [2]: −1
Sequence: AAAAARAAL (MHC-I binding peptide)

The next lines start with the sequence.

Sequence: AAAAALWL (MHC-I binding peptide)
Binding Category [1]: 1

Sequence: AAAARAAAL (MHC-I binding peptide)
Binding Category [2]: 1

Sequence: AAAAALQAK (MHC-I binding peptide)
Binding Category [3]: 1

Sequence: AAAAAAAALY (MHC-I binding peptide)
Binding Category [4]: 1

Sequence: AAAATCALV (MHC-I binding peptide)
Binding Category [6]: 1
Binding Category [7]: 1
Binding Category [8]: 1
Binding Category [5]: 1
Binding Category [9]: 1

Sequence: AAAAPYAGW (MHC-I binding peptide)
Binding Category [10]: 1

Sequence: AAAAFEAAL
Binding Category [11]: 1

Sequence: AAADFAHAE (MHC-I binding peptide)
Binding Category [13]: −1
